Reference: patent US20100069346A1, “New Azetidine Derivatives as Neurokinin Receptor Antagonists for the Treatment of Gastrointestinal Diseases” (priority 2005, published 2010)

Columns and labels:
[1] = Metabolic stability in liver microsomes (HLM); assay type: in vitro ADME; conditions: pH 7.4; human liver microsomes
Procedure: Stability against human microsomal metabolism in vitro is indicative of stability towards metabolism in vivo.
The metabolic stability of compounds according to formula I can be determined as described below: […]
The rate of biotransformation can be measured as either metabolite(s) formation or the rate of disappearance of the parent compound. The experimental design involves incubation of low concentrations of substrate (usually 1.0 μM) with liver microsomes (usually 0.5 mg/ml) and taking out aliquots at varying time points (usually 0, 5, 10, 15, 20, 30, 40 min.). The test compound is usually dissolved in DMSO. The DMSO concentration in the incubation mixture is usually 0.1% or less since more solvent can drastically reduce the activities of some CYP450s. Incubations are done in 100 mM potassium phosphate buffer, pH 7.4 and at 37° C. Acetonitrile or methanol is used to stop the reaction.

[2] = target: hERG-encoded potassium channel (Homo sapiens, UniProt Q12809); experiment: Activity against hERG (planar-array-based voltage clamp, Kiss et al.); assay type: cell-based
Description: The activity of compounds according to formula I against the hERG-encoded potassium channel can be determined according to Kiss L, et al. Assay Drug Dev Technol. 1 (2003), 127-35: “High throughput ion-channel pharmacology: planar-array-based voltage clamp”.

human NK3 receptor = target: T1, human NK3 receptor (Homo sapiens, UniProt P29371); experiment: FLIPR assay, inhibition of human NK3 receptor activation (intracellular Ca2+); assay type: cell-based; conditions: CHO cells with human NK3 receptor, agonist Pro-7-NKB, read-out: pKB (NK3) (converted)
T1 construct: expressed in transfected cells; host or cells: CHO-K1 cells (ATCC), hNK3R in pcDNA 3.1/Hygro (+)/IRES/CD8
T1 sequence (P29371 1-465): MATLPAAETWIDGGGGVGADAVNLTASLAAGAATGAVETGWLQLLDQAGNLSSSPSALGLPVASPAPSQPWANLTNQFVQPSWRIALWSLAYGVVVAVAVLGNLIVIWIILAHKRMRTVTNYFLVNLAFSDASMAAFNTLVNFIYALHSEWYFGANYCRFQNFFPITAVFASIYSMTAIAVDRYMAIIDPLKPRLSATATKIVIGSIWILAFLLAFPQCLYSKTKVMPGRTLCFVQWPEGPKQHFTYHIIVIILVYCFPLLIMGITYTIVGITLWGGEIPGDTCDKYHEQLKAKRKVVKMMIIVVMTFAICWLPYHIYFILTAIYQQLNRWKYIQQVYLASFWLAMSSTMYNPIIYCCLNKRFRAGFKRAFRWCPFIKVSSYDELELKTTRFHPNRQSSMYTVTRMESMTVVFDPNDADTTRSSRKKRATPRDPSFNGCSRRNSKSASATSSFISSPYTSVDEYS
Procedure: (§1) Chinese Hamster Ovary (CHO) K1 cells (obtained from ATCC) were stably transfected with the human NK2 receptor (hNK2R cDNA in pRc/CMV, Invitrogen) or the human NK3 receptor (hNK3R in pcDNA 3.1/Hygro (+)/IRES/CD8, Invitrogen vector modified at AstraZeneca EST-Bio UK, Alderley Park). The cells were transfected with the cationic lipid reagent LIPOFECTAMINE™ (Invitrogen) and selection was performed with Geneticin (G418, Invitrogen) at 1 mg/ml for the hNK2R transfected cells and with Hygromycin (Invitrogen) at 500 μg/ml for the hNK3R transfected cells. Single cell clones were collected by aid of Fluorescence Activated Cell Sorter (FACS), tested for functionality in a FLIPR assay (see below), expanded in culture and cryopreserved for future use. CHO cells stably transfected with human NK1 receptors originates from AstraZeneca R&D, Wilmington USA. Human NK1 receptor cDNA (obtained from RNA-PCR from lung tissue) was subcloned into pRcCMV (Invitrogen). Transfection was performed by Calcium Phosphate and selection with 1 mg/ml G418. […]
(§2) The activity of a compound of the invention to inhibit NK1/NK2/NK3 receptor activation measured as NK1/NK2/NK3 receptor mediated increase in intracellular Ca^2+ was assessed by the following procedure: […]

human NK2 receptor = target: T2, human NK2 receptor (Homo sapiens, UniProt P21452); experiment: FLIPR assay, inhibition of human NK2 receptor activation (intracellular Ca2+); assay type: cell-based; conditions: CHO cells with human NK2 receptor, agonist NKA, read-out: pKB (NK2) (converted)
T2 construct: expressed in transfected cells; host or cells: CHO-K1 cells (ATCC), hNK2R cDNA in pRc/CMV
T2 sequence (P21452 1-398): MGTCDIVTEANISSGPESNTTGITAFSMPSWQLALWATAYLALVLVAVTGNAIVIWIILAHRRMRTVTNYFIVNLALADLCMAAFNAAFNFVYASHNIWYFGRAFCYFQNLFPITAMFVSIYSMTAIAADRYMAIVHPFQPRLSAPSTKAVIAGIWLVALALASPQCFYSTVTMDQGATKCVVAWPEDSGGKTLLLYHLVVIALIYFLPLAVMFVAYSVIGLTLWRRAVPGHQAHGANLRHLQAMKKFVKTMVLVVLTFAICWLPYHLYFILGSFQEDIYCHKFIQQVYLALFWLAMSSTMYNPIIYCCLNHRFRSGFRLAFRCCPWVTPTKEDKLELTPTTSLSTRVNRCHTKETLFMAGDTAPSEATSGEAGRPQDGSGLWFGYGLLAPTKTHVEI
Procedure: as §1, §2

CYP3A4 = CYP3A4 (Homo sapiens, UniProt P08684); experiment: CYP3A4 inhibition assay (Bapiro et al.); assay type: in vitro ADME
Description: It is well known that severe problems such as toxicity may occur if plasma levels of one medication are altered by the co-administration of another drug. […] CYP (cytochrome P450) 3A4 is the most important enzyme in the human liver as a majority of oxidised drugs have been biotransformed by this enzyme. Accordingly, it is undesirable to employ a medication having a significant degree of such liver enzyme inhibiting properties. […] Thus, there is a need for a novel NK receptor antagonist with improved pharmacokinetic properties. The present invention provides compounds with CYP3A4 enzyme inhibiting properties at a low level, as comparatively high IC50 values are obtained in a CYP3A4 inhibiting assay. Said method for determining CYP3A4 inhibition is described in Bapiro et al; Drug Metab. Dispos. 29, 30-35 (2001).
The IC50 values tested according to Bapiro et al; Drug Metab. Dispos. 29, 30-35 (2001) were generally greater than 2 μM.

human NK1 receptor = target: T3, human NK1 receptor (Homo sapiens, UniProt P25103); experiment: FLIPR assay, inhibition of human NK1 receptor activation (intracellular Ca2+); assay type: cell-based; conditions: CHO cells with human NK1 receptor, agonist Substance P, read-out: pKB (NK1) (converted)
T3 construct: expressed in transfected cells; host or cells: CHO cells (AstraZeneca R&D Wilmington), cDNA in pRcCMV
Procedure: as §1, §2

[3] = target: T4, Human Neurokinin-2 (NK2) Receptor (Homo sapiens, UniProt P21452); conditions: Bioorg. Med. Chem. Lett. (2003), 13, 2211-2215; cited from earlier work
T4 sequence (P21452 1-398): T2 sequence (P21452 1-398)

CYP3A4, sequence (P08684 whole entry): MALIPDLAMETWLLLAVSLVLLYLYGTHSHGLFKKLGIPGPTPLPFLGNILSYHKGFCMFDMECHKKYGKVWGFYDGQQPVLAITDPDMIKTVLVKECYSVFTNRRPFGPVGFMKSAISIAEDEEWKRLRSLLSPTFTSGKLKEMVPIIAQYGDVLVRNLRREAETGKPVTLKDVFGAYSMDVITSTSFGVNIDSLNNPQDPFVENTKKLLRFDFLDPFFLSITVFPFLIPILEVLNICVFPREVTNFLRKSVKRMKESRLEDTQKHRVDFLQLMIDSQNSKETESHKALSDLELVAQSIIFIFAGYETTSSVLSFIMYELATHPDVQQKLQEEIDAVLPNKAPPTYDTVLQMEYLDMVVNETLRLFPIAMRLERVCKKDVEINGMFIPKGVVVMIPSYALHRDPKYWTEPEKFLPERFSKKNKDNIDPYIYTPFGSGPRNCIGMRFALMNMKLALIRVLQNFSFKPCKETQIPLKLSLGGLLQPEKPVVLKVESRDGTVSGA
hERG-encoded potassium channel, sequence (Q12809 whole entry): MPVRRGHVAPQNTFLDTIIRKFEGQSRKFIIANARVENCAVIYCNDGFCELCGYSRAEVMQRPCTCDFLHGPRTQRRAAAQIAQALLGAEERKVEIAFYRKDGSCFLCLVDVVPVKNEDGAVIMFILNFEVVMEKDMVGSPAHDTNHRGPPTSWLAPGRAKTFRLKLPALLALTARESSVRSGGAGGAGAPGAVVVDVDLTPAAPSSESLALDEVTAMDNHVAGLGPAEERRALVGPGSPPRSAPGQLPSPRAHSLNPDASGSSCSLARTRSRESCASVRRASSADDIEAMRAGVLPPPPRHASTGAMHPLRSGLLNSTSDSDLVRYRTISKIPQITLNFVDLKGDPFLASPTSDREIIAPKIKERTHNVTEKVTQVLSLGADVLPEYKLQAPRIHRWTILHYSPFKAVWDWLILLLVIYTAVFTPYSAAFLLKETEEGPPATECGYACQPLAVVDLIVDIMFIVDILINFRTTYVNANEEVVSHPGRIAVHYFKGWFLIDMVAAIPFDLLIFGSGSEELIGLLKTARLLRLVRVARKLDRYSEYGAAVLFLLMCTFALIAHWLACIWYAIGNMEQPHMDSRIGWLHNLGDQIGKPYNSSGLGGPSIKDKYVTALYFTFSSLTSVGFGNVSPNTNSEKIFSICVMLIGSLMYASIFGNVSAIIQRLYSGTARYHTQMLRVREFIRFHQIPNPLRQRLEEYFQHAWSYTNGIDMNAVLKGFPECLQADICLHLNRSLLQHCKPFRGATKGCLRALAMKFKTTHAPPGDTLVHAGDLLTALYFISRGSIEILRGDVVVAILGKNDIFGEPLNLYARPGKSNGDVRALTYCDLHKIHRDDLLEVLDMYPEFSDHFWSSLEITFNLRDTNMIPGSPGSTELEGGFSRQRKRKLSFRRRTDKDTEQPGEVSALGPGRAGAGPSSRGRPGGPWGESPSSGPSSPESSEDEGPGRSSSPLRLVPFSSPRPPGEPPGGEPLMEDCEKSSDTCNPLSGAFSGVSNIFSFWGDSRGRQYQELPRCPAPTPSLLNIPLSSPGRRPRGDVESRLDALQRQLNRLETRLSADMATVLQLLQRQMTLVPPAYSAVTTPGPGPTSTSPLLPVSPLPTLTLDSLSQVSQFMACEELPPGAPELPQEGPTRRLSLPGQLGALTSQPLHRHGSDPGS
T3 sequence (P25103 whole entry): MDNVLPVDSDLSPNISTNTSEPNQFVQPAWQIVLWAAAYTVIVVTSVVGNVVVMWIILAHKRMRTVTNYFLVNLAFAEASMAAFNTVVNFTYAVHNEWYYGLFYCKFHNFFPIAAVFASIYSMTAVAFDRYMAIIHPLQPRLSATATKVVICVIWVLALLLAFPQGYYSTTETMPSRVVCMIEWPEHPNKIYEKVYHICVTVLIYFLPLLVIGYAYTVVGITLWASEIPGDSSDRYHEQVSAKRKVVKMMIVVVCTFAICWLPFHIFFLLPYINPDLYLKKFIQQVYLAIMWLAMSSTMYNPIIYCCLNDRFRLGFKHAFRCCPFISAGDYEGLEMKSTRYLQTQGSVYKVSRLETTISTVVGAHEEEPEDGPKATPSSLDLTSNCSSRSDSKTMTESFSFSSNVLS

microsomal CLint at 1 μM [1] | Kb (human NK3 receptor) | Kb (human NK2 receptor) | IC50 (CYP3A4) | Kb (human NK1 receptor) | Structure (SMILES) | IC50 [2] | functional NK2 receptor antagonism [3]
40.7 µL/min/mg | 20 nM | 25.1 nM | 19200 nM | 7.94 nM | CN(C[C@@H](CCN1CC(N2CCOC[C@H]2CCO)C1)c1ccc(F)cc1)C(=O)c1cc(Br)cc(C(F)(F)F)c1 [Ex 5, 3-Bromo-N-((2S)-2-(4-fluorophenyl)-4-{3-[(3R)-3-(2-hydroxyethyl)morpholin-4-yl]azetidin-1-yl}butyl)-N-methyl-5-(trifluoromethyl)benzamide] | 18800 nM | 
 |  |  |  |  | CN(CC(CCN1CC(N2CCOCC2)C1)c1ccc(Cl)c(Cl)c1)C(=O)c1ccccc1 (stereo not shown) [N-[2-(3,4-dichlorophenyl)-4-(3-morpholin-4-ylazetidin-1-yl)butyl]-N-methylbenzamide] |  | functional NK2 receptor antagonistic properties
